{
  "source": "paper PMC11019538",
  "about": "“Biophysics-Guided Lead Discovery of HBV Capsid Assembly Modifiers” (ACS Infectious Diseases, 2024)",
  "key": {"[1]": {"test_system": "HBV DNA replication in HepAD38 cells", "assay": "HBV DNA replication inhibition assay in HepAD38 cells (7 days, PCR of supernatant DNA)", "format": "cell-based, hepatitis B virus", "details": "Hepatitis B virus", "protocol": "HepAD38 cells were seeded at 50,000 cells/well in collagen-coated 96-well plates. […] The experiment lasted 7 days. On day 7, total DNA was purified from the supernatant using a commercially available kit (DNeasy 96 Blood & Tissue kit, Qiagen). The HBV DNA was amplified in a polymerase chain reaction assay using LightCycler 480 II (Roche), as previously described.[63] All samples were tested in duplicate."}, "[2]": {"assay": "MTT cytotoxicity, PBM cells", "format": "cell-based, human", "details": "human, peripheral blood mononuclear (PBM) cells", "protocol": "(§1) Human peripheral blood mononuclear (PBM), T lymphoblast CEM-CCRF (herein referred to as CEM cells), African green monkey kidney (Vero), or human liver carcinoma (HepG2) cells were tested via MTT assay using the CellTiter 96 Non-Radioactive Cell Proliferation (Promega) kit as previously described.[63]"}, "[3]": {"assay": "MTT cytotoxicity, CEM cells", "format": "cell-based, human", "details": "human, T lymphoblast CEM-CCRF (CEM) cells", "protocol": "as §1"}, "[4]": {"assay": "MTT cytotoxicity, Vero cells", "format": "cell-based, African green monkey", "details": "African green monkey, Vero cells (kidney)", "protocol": "as §1"}, "[5]": {"assay": "MTT cytotoxicity, HepG2 cells", "format": "cell-based, human", "details": "human, HepG2 cells (liver carcinoma)", "protocol": "as §1"}, "[6]": {"assay": "MTT cytotoxicity, four cell lines taken together", "format": "cell-based", "details": "human, African green monkey; PBM, CEM, Vero, HepG2; read-out: CC50 in all cell lines", "protocol": "as §1"}, "Cp149 [7]": {"molecular_target": "T1, Cp149 (Hepatitis B virus genotype D subtype adw, UniProt P03147)", "T1 construct": "The N-terminal domain of Cp (Cp149) is sufficient for forming regular capsids; made in house; host or cells: E. coli BL21(DE3)", "T1 sequence (P03147 1-149)": "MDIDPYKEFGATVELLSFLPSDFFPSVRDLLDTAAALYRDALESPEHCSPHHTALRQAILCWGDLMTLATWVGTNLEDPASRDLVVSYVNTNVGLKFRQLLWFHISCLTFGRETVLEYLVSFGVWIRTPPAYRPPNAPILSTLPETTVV", "parameters": "method as in PMID 31712213", "details": "read-out: previously reported dissociation constant (KD); cited from earlier work"}, "[8]": {"test_system": "human peripheral blood mononuclear (PBM) cells", "assay": "MTT cytotoxicity, PBM cells", "format": "cell-based", "details": "100 µM", "protocol": "as §1"}, "[9]": {"test_system": "African green monkey kidney (Vero) cells", "assay": "MTT cytotoxicity, Vero cells", "format": "cell-based", "details": "Vero cells, 100 µM", "protocol": "as §1"}, "[10]": {"test_system": "human liver carcinoma (HepG2) cells", "assay": "MTT cytotoxicity, HepG2 cells", "format": "cell-based", "details": "HepG2 cells, 100 µM", "protocol": "as §1"}, "Cp149 [11]": {"molecular_target": "T1, Cp149", "assay": "Tryptophan fluorescence titration", "format": "binding", "details": "20 μM Cp149, compound up to 100 μM", "protocol": "Each of the compounds was titrated into 100 μL of the protein solution to final concentrations of 0, 5, 10, 20, 50, and 100 μM in a clear bottom 96-well plate. […] Tryptophan fluorescence levels were measured by exciting the samples at 285 nm and measuring the emission at 340 nm with the Varioskan Flash (Thermo Fisher) plate reader. […] Fluorescence quenching was calculated by taking the difference of net fluorescence levels of each concentration and of the 0 μM sample. All the samples were run in triplicate, and the results were averaged. The dissociation constants (KD) were fitted by the one-site-specific binding model of GraphPad.[45]"}, "Cp149 capsid assembly [12]": {"molecular_target": "T2, Cp149 capsid assembly (Hepatitis B virus genotype D subtype adw, UniProt P03147)", "T2 construct": "The N-terminal domain of Cp (Cp149) is sufficient for forming regular capsids; made in house; host or cells: E. coli BL21(DE3)", "T2 sequence (P03147 1-149)": "as above", "assay": "Transmission electron microscopy of assembled Cp149 products", "format": "biochemical", "details": "20 μM Cp149, 40 μM compound", "protocol": "The assembled samples of Cp149 were prepared as described in the Size Exclusion Chromatography section. Eight μL of each sample was added onto the 300 mesh Lacey Formvar carbon–copper grids (Ted Pella, Inc.) and allowed to sit for 1.5 min. The grid was then rinsed in 500 mL of deionized water for 10 s twice to rinse off the extra buffer on the grid. After drying, the sample was stained with 8 μL of 2% uranyl acetate for 1 min. After removal and drying of the uranyl acetate solution, the sample was imaged with a Hitachi HT7700 electron microscope at an accelerating voltage of 120 kV, at the IMat Materials Characterization Facility of Georgia Institute of Technology. The images underwent processing using ImageJ software. Initially, to minimize noise, a Gaussian blur filter was applied. These images were then converted into an 8 bit binary format for edge detection. ImageJ identified particles ranging in size from 800 to 2000 pixels. An example of a processed image can be seen in Figure S14. The circularity of each particle was calculated using the formula circularity = 4π × area × perimeter^–2. […] A total of four images, each containing a minimum of 100 capsids, were analyzed to determine the proportion of the abnormal capsids. The entire experiment was duplicated, and the outcomes from both sets were then averaged."}, "[13]": {"test_system": "PBM, CEM, Vero and HepG2 cells", "assay": "MTT cytotoxicity, four cell lines taken together", "format": "cell-based", "protocol": "as §1"}, "[14]": {"assay": "MTS cytotoxicity (Table S4)"}, "Cp149 capsid assembly [15]": {"molecular_target": "T2, Cp149 capsid assembly", "assay": "Size exclusion chromatography of Cp149 assembly", "format": "biochemical", "details": "20 μM Cp149, 40 μM CAM, 500 mM NaCl, 1 h, 37 °C", "protocol": "The Cp149 protein solution and the compound solution were initially mixed in concentrations of 40 μM Cp149 and 80 μM compound and incubated for 1 h at 37 °C to allow the compound to bind to the protein. The NaCl solution was then added to the incubated mixture to final concentrations of 20 μM Cp149, 40 μM compound, and 500 mM NaCl to initiate the assembly of Cp149. This mixture was incubated at 37 °C for 1 h. Finally, […] of the sample was analyzed using a hand-poured Superose 6 column, at the flow rate of 0.4 mL/min, and the isocratic mobile phase was 50 mM HEPES (pH 7.5)."}, "[16]": {"details": "HepAD38 cells, 10 μM, trial 1, read-out: % HBV DNA Inh. at 10 μM, trial 1"}},
  "note": "Read-outs that look alike come from different tables or passages of the source.",
  "data": [
    {"smiles": "Cc1cc2nc(-c3ccccn3)c(-c3ccccn3)nc2cc1C", "note": "[GT-5]", "values": [
      {"measurement": "inhibition at 10 µM", "setting": "[1]; HepAD38 cells, 10 µM, first round of selected compounds, read-out: HBV DNA inhibition (%) at 10 µM", "value": 24.7, "unit": "%"},
      {"measurement": "inhibition at 10 µM", "setting": "[1]; [16]", "value": 24, "unit": "%"},
      {"measurement": "CC50", "setting": "[2]", "value": "> 100", "unit": "µM"},
      {"measurement": "CC50", "setting": "[3]", "value": "> 100", "unit": "µM"},
      {"measurement": "CC50", "setting": "[4]", "value": "> 100", "unit": "µM"},
      {"measurement": "CC50", "setting": "[5]", "value": "> 100", "unit": "µM"},
      {"measurement": "CC50", "setting": "[6]", "value": "> 100", "unit": "µM"}
    ]},
    {"smiles": "C#CCNC(=O)C(=O)c1c(C)c(C(=O)Nc2ccc(F)c(F)c2)n(C)c1C", "note": "[GLP-26]", "values": [
      {"measurement": "Kd", "setting": "Cp149 [7]", "value": 0.7, "unit": "µM"}
    ]},
    {"smiles": "CCn1ccnc1-c1c(-c2ccccc2)ncn1CCCc1cccnc1", "note": "[GT-39]", "values": [
      {"measurement": "inhibition at 200 µM", "setting": "[1]; HePAD38, 200 µM, additional testing, Table S4, read-out: Anti-HBV activity in HepAD38 cells, % Inh. at 200 µM ± SD", "value": "39.1 ± 1.5", "unit": "%"},
      {"measurement": "EC50", "setting": "[1]; HePAD38, additional testing, Table S4, read-out: Anti-HBV activity in HepAD38 cells, EC50", "value": "> 200", "unit": "µM"},
      {"measurement": "inhibition at 10 µM", "setting": "[1]; [16]", "value": 57, "unit": "%"},
      {"measurement": "inhibition at 10 µM", "setting": "[1]; HepAD38 cells, 10 μM, trial 2, read-out: % HBV DNA Inh. at 10 μM, trial 2", "value": 50, "unit": "%"},
      {"measurement": "inhibition at 10 µM", "setting": "[1]; HepAD38 cells, 10 µM, trial 3, read-out: % HBV DNA Inh. at 10 µM, trial 3", "value": "< 1", "unit": "%"},
      {"measurement": "inhibition at 10 µM", "setting": "[1]; HepAD38 cells, 10 µM, trial 4, read-out: % HBV DNA Inh. at 10 µM, trial 4", "value": 36, "unit": "%"},
      {"measurement": "inhibition at 10 µM", "setting": "[1]; HepAD38 cells, 10 μM, read-out: % inhibition in at least one of the trials", "value": "> 50", "unit": "%"},
      {"measurement": "EC50", "setting": "[1]; HepAD38 cells, trial 1, read-out: EC50, trial 1", "value": "< 10", "unit": "µM"},
      {"measurement": "EC50", "setting": "[1]; HepAD38 cells, trial 2, read-out: EC50, trial 2", "value": 10, "unit": "µM"},
      {"measurement": "EC50", "setting": "[1]; HepAD38 cells, trial 3, read-out: EC50, trial 3", "value": "> 10", "unit": "µM"},
      {"measurement": "EC50", "setting": "[1]; HepAD38 cells, trial 4, read-out: EC50, trial 4", "value": "> 100", "unit": "µM"},
      {"measurement": "CC50", "setting": "[2]", "value": "> 100", "unit": "µM"},
      {"measurement": "percent cytotoxicity (cell growth inhibition) at 100 µM", "setting": "[8]", "value": 22, "unit": "%"},
      {"measurement": "CC50", "setting": "[3]", "value": 16, "unit": "µM"},
      {"measurement": "CC50", "setting": "[4]", "value": "> 100", "unit": "µM"},
      {"measurement": "% cytotoxicity (MTT) at 100 µM", "setting": "[9]", "value": 47, "unit": "%"},
      {"measurement": "CC50", "setting": "[5]", "value": "> 100", "unit": "µM"},
      {"measurement": "percent cytotoxicity (MTT) at 100 µM, HepG2", "setting": "[10]", "value": 32, "unit": "%"},
      {"measurement": "tryptophan fluorescence quenching", "setting": "Cp149 [11]", "value": "reproducible but modest fluorescence quenching"},
      {"measurement": "effect on capsid morphology (TEM)", "setting": "Cp149 capsid assembly [12]", "value": "induced misdirected products"},
      {"measurement": "% abnormal capsids, Trial 1", "setting": "Cp149 capsid assembly [12]; 500 mM NaCl", "value": 45, "unit": "%"},
      {"measurement": "% abnormal capsids, Trial 2", "setting": "Cp149 capsid assembly [12]; 500 mM NaCl", "value": 36, "unit": "%"},
      {"measurement": "toxicity in at least one cell line tested", "setting": "[13]", "value": "16 to 18", "unit": "µM"},
      {"measurement": "IC50", "setting": "in vitro", "value": "> 200", "unit": "µM"},
      {"measurement": "MTS cytotoxicity, % Inh. at 200 µM", "setting": "[14]", "value": "< 1", "unit": "%"}
    ]},
    {"smiles": "CCOC(=O)C1=C(CN2CCOCC2)NC(c2nccs2)=NC1c1ccc(F)cc1Br", "note": "(centres unmarked) [GLS4, reference compound]", "values": [
      {"measurement": "effect on capsid morphology (TEM)", "setting": "Cp149 capsid assembly [12]", "value": "strong misdirecting effects"},
      {"measurement": "effect on distribution of dimers and capsids / capsid size (SEC)", "setting": "Cp149 capsid assembly [15]", "value": "strong enhancement of assembly"}
    ]}
  ]
}
